The subject of one experiment is AMO-1 cells. Put plainly: In vitro cell viability assay (CellTiter-Glo). Type of experiment: cell-based, human. The protocol: (§1) All cell lines were grown and treated in RPMI 1640 or Dulbecco’s modified Eagle medium (Sigma, St. Louis, MO) supplemented with 10% fetal bovine serum (Gibco) or 10% human serum (Sigma) and maintained in a humidified incubator at 5% CO2 and 37 °C. DLD-1, MV4-11, NCI-H929 (all ATCC, Manassas, VA, USA) and AMO-1 (DSMZ, Braunschweig, Germany) cells were plated 4000 cells per well in 384-well tissue culture plates and treated with compounds of interest for 24 h at 37 °C, 5% CO2 humidified incubator. Each concentration was tested in duplicate at least 3 separate times. Adherent cells were allowed to adhere overnight prior to treatment. Alternatively, AMO-1 or NCI-H929 cells were treated with ABBV-467 for the indicated contact times (1–24 h) at 37 °C in a 5% CO2 humidified incubator and washed 3 times with compound-free media prior to incubation for the remainder of a 24-h treatment period. Cell viability was subsequently determined using CellTiter-Glo (Promega, Madison, WI, USA) according to the manufacturer’s instructions.
(§2) For in vitro viability assays, mean EC50 and EC90 values were determined from the resulting dose-response curves from at least 3 independent experiments, and depict the mean ± standard error of the mean.
(§3) Fig. 2 Apoptosis induced by ABBV-467 is mechanism based and induces cell death in MCL-1-dependent cell lines after short target engagement periods. H929 cells were treated with ABBV-467 in the presence or absence of the pan-caspase inhibitor z-VAD-fmk (50 µM) and the impact on caspase-3/7 activation (a), mitochondrial membrane potential (ΔΨm; b), and apoptosis (c) determined. Alternatively, BAK-deficient SKBR3 cells were treated with ABBV-467 for 24 h and the impact on cell viability compared with the parental cell line, determined by CellTiter-Glo. Inset depicts a western blot of BAK and BAX expression in SKBR3 cell variants using GAPDH as a loading control. Each of the 3 proteins were probed on separate blots (d). Data in (a–d) are presented as the mean ± standard error of the mean. H929 and AMO-1 cells were treated with ABBV-467 at the indicated concentrations and the impact on caspase-3/7 activation and viability (DRAQ7-positive) cells determined over time by Incucyte®. Data are presented as the mean ± standard deviation (e). H929 or AMO-1 cells were cultured in media containing 10% human serum and treated with ABBV-467 for the indicated contact times. Cells were subsequently washed 3 times with drug-free media and incubated in drug-free media for the remainder of the 24-h treatment period at 37 °C before cell viability was determined by CellTiter-Glo. Mean EC50 and EC90 values were determined from the resulting dose-response curves from at least 3 independent experiments, each assessed in quadruplicate, and depict the mean ± standard error of the mean. Presented ABBV-467 dose-response curves in H929 and AMO-1 cells were compiled from at least 3 independent experiments (f).

In another experiment the test system is MV4-11 cells. Put plainly: In vitro cell viability assay (CellTiter-Glo). Type of experiment: cell-based, human. The procedure:
as §1, §2
On the technique in general: Cellular ATP, detected with luciferase, serves as a proxy for viable cell number.

A further experiment has as its system DLD-1 cells. Nature of the experiment: In vitro cell viability assay (CellTiter-Glo). The note with it: Homo sapiens. The format is cell-based, human. The protocol: as §1, §2
For a further experiment, the system named is H929 cells. Put plainly: In vitro cell viability assay (CellTiter-Glo). The format is cell-based, human. The procedure:
as §1, §2, §3

A further experiment concerns SKBR3 cells. Put plainly: Cell viability of parental and BAK-, BAX-, BCL2L11-, PMAIP1-deficient SKBR3 cells (CellTiter-Glo). Type of experiment: cell-based. Set-up: SKBR3 BAK Fig 2D: unit not given here. The procedure:
as §3
Supplementary Fig. S5: SKBR3 cells deficient in BAX, BAK , PM AIP 1 (gene encoding the protein NOXA),
BCL 2L 11 (gene encoding the protein BIM) were treated with ABBV-467 for 24 hours and the impact on
cell death compared to the parental cell line determined by CellTiter- Glo™.

Where [1] appears, read: Homo sapiens, AMO1, 24 h, read-out: AMO-1 EC50 (nM, 10% FBS), 10% FBS, 24 h continuous treatment.
[2] abbreviates: Homo sapiens, MV4-11, 24 h, read-out: MV4-11 EC50 (nM, 10% FBS), 10% FBS, 24 h continuous treatment.
Setting [3] is: DLD-1, read-out: DLD-1 EC50 (nM), 10% FBS, 24 h continuous treatment.
The mark [4] stands for this setting: Homo sapiens, NCI-H929, 24 h, read-out: H929 EC50 (nM, 10% FBS), 10% FBS, 24 h continuous treatment.
Setting [5] is: AMO-1, individual determinations, read-out: Individual EC50.
[6] abbreviates: Homo sapiens, AMO1, AMO-1, arithmetic mean, read-out: Arithmetic Mean EC50 nM.
Where [7] appears, read: Homo sapiens, AMO1, AMO-1, arithmetic mean, read-out: Arithmetic Mean EC50 µM.
Setting [8] is: Homo sapiens, AMO1, AMO-1, individual determinations, read-out: Individual EC50.
[9] abbreviates: Homo sapiens, MV4-11, MV4-11, arithmetic mean, read-out: Arithmetic Mean EC50 nM.
The mark [10] stands for this setting: Homo sapiens, MV4-11, MV4-11, arithmetic mean, read-out: Arithmetic Mean EC50 µM.
[11] abbreviates: Homo sapiens, MV4-11, MV4-11, individual determinations, read-out: Individual EC50.
Setting [12] is: MV4-11, individual determinations, read-out: Individual EC50.
Where [13] appears, read: DLD-1, arithmetic mean, read-out: Arithmetic Mean EC50.
The mark [14] stands for this setting: DLD-1, individual determinations, read-out: Individual EC50.
[15] abbreviates: Homo sapiens, NCI-H929, NCI-H929, arithmetic mean, read-out: Arithmetic Mean EC50 nM.
The mark [16] stands for this setting: Homo sapiens, NCI-H929, NCI-H929, arithmetic mean, read-out: Arithmetic Mean EC50 µM.
The mark [17] stands for this setting: NCI-H929, individual determinations, read-out: Individual EC50.

Several values for one entry are separate records, joined by “and”; a condition that tells them apart may be missing. Equal values may be shown once. Read-outs that look alike come from different tables or passages of the source.

In the case of `CO[C@H]1/C=C/C[C@H](C)[C@@H](C)S(=O)(=O)NC(=O)c2ccc3c(c2)N(C[C@@H]2CC[C@H]21)C[C@@]1(CCCc2cc(Cl)ccc21)CO3` [AMG 176, reference compound], the half-maximal effective concentration (EC50) (as a rule, the concentration giving half of the maximal effect) with AMO-1 cells (setting [1]) is 90.6 nM; with MV4-11 cells (setting [2]) it was 106 nM; in the experiment with DLD-1 cells (setting [3]), more than 10000 nM; in the experiment with H929 cells (setting [4]) it was 195 nM.
On to `CO[C@]1(CN2CCN3CCCC[C@@H]3C2)/C=C/C[C@H](C)[C@@H](C)S(=O)(=O)NC(=O)c2ccc3c(c2)N(C[C@@H]2CC[C@H]21)C[C@@]1(CCCc2cc(Cl)ccc21)CO3` [AMG 397, reference compound], for which the EC50 in the experiment on AMO-1 cells (setting [5]) was 13.1 nM and 12.8 nM; with AMO-1 cells (setting [1]) it was 13.5 nM; with AMO-1 cells (setting [6]), 13.5 nM; in the experiment with AMO-1 cells (setting [7]), 13.5 nM; in the experiment with AMO-1 cells (setting [8]) it was 14.8 nM; with MV4-11 cells (setting [2]), 43.6 nM. Besides, the 50% effective concentration (EC50) in the experiment with MV4-11 cells (setting [9]) was 43.6 nM; in the experiment on MV4-11 cells (setting [10]), 43.6 nM; in the experiment on MV4-11 cells (setting [11]) it was 44.3 nM; in the experiment with MV4-11 cells (setting [12]), 42 nM and 44.6 nM; in the experiment on DLD-1 cells (setting [3]), more than 10000 nM; with DLD-1 cells (setting [13]), more than 10000 nM. In addition, the concentration giving a half-maximal response (EC50) in the experiment with DLD-1 cells (setting [14]) was more than 10000 nM; with H929 cells (setting [4]), 13 nM; with H929 cells (setting [15]), 13 nM; in the experiment with H929 cells (setting [16]), 13 nM; in the experiment with H929 cells (Homo sapiens, NCI-H929, NCI-H929, individual determinations, read-out: Individual EC50) it was 12.7 nM; in the experiment on H929 cells (setting [17]), 13.4 nM and 12.9 nM.
Consider `CO[C@H]1/C=C/C[C@H](C)[C@@H](C)S(=O)(=O)NC(=O)c2ccc3c(c2)N(C[C@@H]2CC[C@H]21)C[C@@]1(CCCc2cc(Cl)ccc21)CO3` [AMG-176], for which the EC50 in the experiment on AMO-1 cells (setting [5]) was 105 nM and 130 nM and 174 nM; in the experiment with AMO-1 cells (setting [6]) it was 90.6 nM; with AMO-1 cells (setting [7]), 90.6 nM; in the experiment with MV4-11 cells (setting [9]), 106 nM; with MV4-11 cells (setting [10]), 106 nM; in the experiment with MV4-11 cells (setting [12]) it was 85.5 nM and 203 nM. Moreover, the 50% effective concentration (EC50) with DLD-1 cells (setting [13]) was more than 10000 nM; in the experiment with DLD-1 cells (setting [14]), more than 10000 nM; in the experiment with H929 cells (setting [15]) it was 195 nM; in the experiment with H929 cells (setting [16]), 195 nM.
As to `Cc1c2c(nn1C)CSCc1cc(n(C)n1)CSc1cc(c3ccccc3c1)OCCCc1c(C(=O)O)n(C)c3c-2c(Cl)ccc13` [AZD5991, reference compound], the EC50 with AMO-1 cells (setting [1]) was 22.9 nM; with MV4-11 cells (setting [2]) it was 34.9 nM; in the experiment on DLD-1 cells (setting [3]) it was more than 10000 nM; with H929 cells (setting [4]) it was 31.7 nM.
Regarding `Cc1c2c(nn1C)CSCc1cc(n(C)n1)CSc1cc(c3ccccc3c1)OCCCc1c(C(=O)O)n(C)c3c-2c(Cl)ccc13` [AZD-5991], the EC50 in the experiment on AMO-1 cells (setting [5]) is 18.6 nM and 18.3 nM and 31.9 nM; in the experiment with AMO-1 cells (setting [6]) it was 22.9 nM; with AMO-1 cells (setting [7]), 22.9 nM; in the experiment on AMO-1 cells (setting [8]) it was 22.8 nM; with MV4-11 cells (setting [9]), 34.9 nM; with MV4-11 cells (setting [10]), 34.9 nM. For the same compound, the concentration giving a half-maximal response (EC50) in the experiment on MV4-11 cells (setting [11]) is 36.3 nM; with MV4-11 cells (setting [12]), 35 nM and 33.3 nM; in the experiment with DLD-1 cells (setting [13]) it was more than 10000 nM; in the experiment with DLD-1 cells (setting [14]), more than 10000 nM; in the experiment on H929 cells (setting [15]) it was 31.6 nM; in the experiment on H929 cells (setting [16]), 31.6 nM. For the same compound, the half-maximal effective concentration (EC50) with H929 cells (setting [17]) was 22 nM and 20.4 nM and 19.8 nM and 64.4 nM.
For `Cc1c(Cl)c2c(Cl)c(C)c1-c1c(-c3ccc(F)cc3)sc3ncnc(c13)O[C@@H](C(=O)O)Cc1cc(ccc1OCc1ccnc(-c3ccc(OC[C@H]4COCCO4)cc3)n1)OC[C@@H](CN1CCN(C)CC1)O2` [Compound A-1747745.7], the “SKBR3 BAK Fig 2D” value in the experiment on SKBR3 cells (SKBR3 BAK-/-, Log [A-1747745.7] uM 0.045757) is 84.0406 and 88.7361 and 91.3691; with SKBR3 cells (SKBR3 BAK-/-, Log [A-1747745.7] uM 0.522879), 91.5492 and 90.6375 and 98.324; with SKBR3 cells (SKBR3 BAK-/-, Log [A-1747745.7] uM 1), 71.243 and 87.693 and 82.7613; with SKBR3 cells (SKBR3 BAK-/-, Log [A-1747745.7] uM -0.43136), 93.7393 and 91.7734 and 95.9555; with SKBR3 cells (SKBR3 BAK-/-, Log [A-1747745.7] uM -0.90849) it was 91.4405 and 96.0162 and 91.1767; with SKBR3 cells (SKBR3 BAK-/-, Log [A-1747745.7] uM -1.38561), 96.4117 and 96.5016 and 91.1114. Also, the “SKBR3 BAK Fig 2D” value is 100.833 and 96.8873 and 90.9219 in the experiment on SKBR3 cells (SKBR3 BAK-/-, Log [A-1747745.7] uM -1.86273); 101.031 and 99.3037 and 92.3815 in the experiment with SKBR3 cells (SKBR3 BAK-/-, Log [A-1747745.7] uM -2.33985); 103.475 and 99.2425 and 96.192 in the experiment with SKBR3 cells (SKBR3 BAK-/-, Log [A-1747745.7] uM -2.81697); 92.6268 and 101.141 and 97.8192 in the experiment with SKBR3 cells (SKBR3 BAK-/-, Log [A-1747745.7] uM -3.29409); 106.888 and 100.173 and 98.0201 in the experiment on SKBR3 cells (SKBR3 BAK-/-, Log [A-1747745.7] uM -3.79); 28.8447 and 52.516 and 42.8969 in the experiment on SKBR3 cells (SKBR3 Parent, Log [A-1747745.7] uM -1.86273). Besides, the “SKBR3 BAK Fig 2D” value in the experiment on SKBR3 cells (SKBR3 Parent, Log [A-1747745.7] uM -2.33985) was 83.0425 and 94.5116 and 88.5924; in the experiment on SKBR3 cells (SKBR3 Parent, Log [A-1747745.7] uM -2.81697) it was 98.7606 and 99.166 and 97.8729; in the experiment on SKBR3 cells (SKBR3 Parent, Log [A-1747745.7] uM -3.29409) it was 89.9706 and 97.7937 and 96.3217; in the experiment on SKBR3 cells (SKBR3 Parent, Log [A-1747745.7] uM -3.79), 100.8 and 103.293 and 99.6415.

The values above are taken from publication PMC10600239, “Selective MCL-1 inhibitor ABBV-467 is efficacious in tumor models but is associated with cardiac troponin increases in patients” (Communications Medicine, 2023).
